Assay results published in ChEMBL document CHEMBL1128792, “Aromatic amino acid phosphoramidate di- and triesters of 3-azido-3-deoxythymidine (AZT) are non-toxic inhibitors of HIV-1 replication” (Bioorg Med Chem Lett, 1995).

Tested on: CCRF-CEM
Test: Cytotoxic concentration towards CEM cells
Assay type: functional
Conditions: Homo sapiens

SMILES | CC50
COC(=O)[C@H](Cc1c[nH]c2ccccc12)NP(=O)(O)OC[C@H]1O[C@@H](n2cc(C)c(=O)[nH]c2=O)C[C@@H]1N=[N+]=[N-] | > 100 µM
COC(=O)[C@H](Cc1ccccc1)NP(=O)(O)OCC1OC(n2cc(C)c(=O)[nH]c2=O)CC1N=[N+]=[N-] (stereo partly specified) | > 100 µM
COC(=O)[C@H](Cc1c[nH]c2ccccc12)NP(=O)(OCCC#N)OCC1OC(n2cc(C)c(=O)[nH]c2=O)CC1N=[N+]=[N-] (stereo partly specified) | > 100 µM
COC(=O)[C@H](Cc1ccccc1)NP(=O)(OCCC#N)OCC1OC(n2cc(C)c(=O)[nH]c2=O)CC1N=[N+]=[N-] (stereo partly specified) | > 100 µM
COC(=O)[C@H](Cc1ccccc1)NP(=O)(OC)OCC1OC(n2cc(C)c(=O)[nH]c2=O)CC1N=[N+]=[N-] (stereo partly specified) | > 50 µM
COC(=O)[C@H](Cc1c[nH]c2ccccc12)NP(=O)(OC)OCC1OC(n2cc(C)c(=O)[nH]c2=O)CC1N=[N+]=[N-] (stereo partly specified) | > 50 µM
Cc1cn([C@H]2C[C@H](N=[N+]=[N-])[C@@H](CO)O2)c(=O)[nH]c1=O [ZIDOVUDINE] | 14.3 µM

Tested on: not listed separately
Test: Cytotoxic concentration towards peripheral blood mononuclear cells
Assay type: functional
Conditions: Homo sapiens

SMILES | CC50
COC(=O)[C@H](Cc1c[nH]c2ccccc12)NP(=O)(O)OC[C@H]1O[C@@H](n2cc(C)c(=O)[nH]c2=O)C[C@@H]1N=[N+]=[N-] | > 100 µM
COC(=O)[C@H](Cc1ccccc1)NP(=O)(O)OCC1OC(n2cc(C)c(=O)[nH]c2=O)CC1N=[N+]=[N-] (stereo partly specified) | > 100 µM
COC(=O)[C@H](Cc1c[nH]c2ccccc12)NP(=O)(OCCC#N)OCC1OC(n2cc(C)c(=O)[nH]c2=O)CC1N=[N+]=[N-] (stereo partly specified) | > 100 µM
COC(=O)[C@H](Cc1ccccc1)NP(=O)(OCCC#N)OCC1OC(n2cc(C)c(=O)[nH]c2=O)CC1N=[N+]=[N-] (stereo partly specified) | > 100 µM
COC(=O)[C@H](Cc1ccccc1)NP(=O)(OC)OCC1OC(n2cc(C)c(=O)[nH]c2=O)CC1N=[N+]=[N-] (stereo partly specified) | > 100 µM
COC(=O)[C@H](Cc1c[nH]c2ccccc12)NP(=O)(OC)OCC1OC(n2cc(C)c(=O)[nH]c2=O)CC1N=[N+]=[N-] (stereo partly specified) | > 50 µM
Cc1cn([C@H]2C[C@H](N=[N+]=[N-])[C@@H](CO)O2)c(=O)[nH]c1=O [ZIDOVUDINE] | > 100 µM

Biological target: Human immunodeficiency virus type 1 reverse transcriptase (Human immunodeficiency virus 1, UniProt Q72547)
Test: Tested for the inhibition towards HIV-reverse transcriptase
Conditions: not given

SMILES | IC50
COC(=O)[C@H](Cc1ccccc1)NP(=O)(O)OCC1OC(n2cc(C)c(=O)[nH]c2=O)CC1N=[N+]=[N-] (stereo partly specified) | > 100 µM
COC(=O)[C@H](Cc1c[nH]c2ccccc12)NP(=O)(OCCC#N)OCC1OC(n2cc(C)c(=O)[nH]c2=O)CC1N=[N+]=[N-] (stereo partly specified) | > 100 µM
COC(=O)[C@H](Cc1ccccc1)NP(=O)(OCCC#N)OCC1OC(n2cc(C)c(=O)[nH]c2=O)CC1N=[N+]=[N-] (stereo partly specified) | > 100 µM

Results, then the compound that gave them:

IC50 | SMILES
0.01 µM | Cc1cn([C@H]2C[C@H](N=[N+]=[N-])[C@@H](CO)O2)c(=O)[nH]c1=O [ZIDOVUDINE]
> 100 µM | COC(=O)[C@H](Cc1c[nH]c2ccccc12)NP(=O)(O)OC[C@H]1O[C@@H](n2cc(C)c(=O)[nH]c2=O)C[C@@H]1N=[N+]=[N-]

Tested on: not listed separately
Test: Effective molar concentration required to inhibit the replication of HIV-1 in human peripheral blood mononuclear cells by 50% (PBMC) was determined
Assay type: functional
Conditions: not given

SMILES | EC50
COC(=O)[C@H](Cc1ccccc1)NP(=O)(O)OCC1OC(n2cc(C)c(=O)[nH]c2=O)CC1N=[N+]=[N-] (stereo partly specified) | 0.6 µM
COC(=O)[C@H](Cc1c[nH]c2ccccc12)NP(=O)(OCCC#N)OCC1OC(n2cc(C)c(=O)[nH]c2=O)CC1N=[N+]=[N-] (stereo partly specified) | 0.4 µM
COC(=O)[C@H](Cc1ccccc1)NP(=O)(OCCC#N)OCC1OC(n2cc(C)c(=O)[nH]c2=O)CC1N=[N+]=[N-] (stereo partly specified) | > 1 µM
COC(=O)[C@H](Cc1c[nH]c2ccccc12)NP(=O)(OC)OCC1OC(n2cc(C)c(=O)[nH]c2=O)CC1N=[N+]=[N-] (stereo partly specified) | 0.3 µM

Compounds with a lower EC50, results first:

EC50 | SMILES
0.09 µM | COC(=O)[C@H](Cc1ccccc1)NP(=O)(OC)OCC1OC(n2cc(C)c(=O)[nH]c2=O)CC1N=[N+]=[N-] (stereo partly specified)
0.08 µM | Cc1cn([C@H]2C[C@H](N=[N+]=[N-])[C@@H](CO)O2)c(=O)[nH]c1=O [ZIDOVUDINE]
0.01 µM | COC(=O)[C@H](Cc1c[nH]c2ccccc12)NP(=O)(O)OC[C@H]1O[C@@H](n2cc(C)c(=O)[nH]c2=O)C[C@@H]1N=[N+]=[N-]
